Measured values published in patent publication US12606571B2, “Macrocyclic compounds and uses thereof” (TURNING POINT THERAPEUTICS, INC., priority 2017, dated 2026).
Read-outs that look alike come from different tables or passages of the source.

Key:
HCC827 cells [1] = assay: HCC827 cell proliferation assay, single agents and combinations; assay type: cell-based, human
SNU-5 cells = assay: MET cell proliferation assay, SNU-5 (CellTiter-Glo); assay type: cell-based; conditions: Homo sapiens, 72 hours treatment
Protocol: (§1) Two thousand cells per well were seeded in 384 well white plate for 24 hrs, and then treated with compounds for 72 hours (37° C., 5% CO2). Cell proliferation was measured using CellTiter-Glo luciferase-based ATP detection assay (Promega) following the manufacturer's protocol. IC50 determinations were performed using GraphPad Prism software (GraphPad, Inc., San Diego, CA).
(§2) The anti-cell proliferation activities against MET and CSF1R driven cell lines were conducted with MKN-45, SNU-5, Ba/F3 TEL-CSF1R cells, and M-NFS-60 respectively.

MKN-45 cells [2] = assay: MET cell proliferation assay, MKN-45 (CellTiter-Glo); assay type: cell-based; conditions: Homo sapiens, 72 hours treatment
Protocol: as §1, §2

MET = biological target: T1, MET (Homo sapiens, UniProt P08581); assay: Biochemical kinase assay (Reaction Biology), MET; conditions: 10 μM ATP; read-out: Enzymatic Kinase MET IC50
T1 construct: purchased Reaction Biology Corporation (assay service; enzyme from the CRO's panel)
Protocol: (§3) Specific kinase/substrate pairs along with required cofactors were prepared in reaction buffer; 20 mM Hepes pH 7.5, 10 mM MgCl2,1 mM EGTA, 0.02% Brij35, 0.02 mg/ml BSA, 0.1 mM Na3VO4, 2 mM DTT, 1% DMSO (for specific details of individual kinase reaction components see Supplementary Table 2). Compounds were delivered into the reaction, followed ˜20 minutes later by addition of a mixture of ATP (Sigma, St. Louis MO) and ^33P ATP (Perkin Elmer, Waltham MA) to a final concentration of 10 μM. Reactions were carried out at room temperature for 120 min, followed by spotting of the reactions onto P81 ion exchange filter paper (Whatman Inc., Piscataway, NJ). […] IC50 values and curve fits were obtained using Prism (GraphPad Software).
(§4) The enzymatic kinase inhibition activities at 10 μM ATP concentration were determined at Reaction Biology.

SRC = biological target: T2, SRC (Homo sapiens, UniProt P12931); assay: Biochemical kinase assay (Reaction Biology), SRC; conditions: 10 μM ATP; read-out: Enzymatic Kinase SRC IC50
T2 construct: purchased Reaction Biology Corporation (assay service; enzyme from the CRO's panel)
Protocol: as §3, with “The biochemical kinase assay was performed at Reaction Biology Corporation (www.reactionbiology.com, Malvern, PA) following the procedures described in the reference (Anastassiadis T, et al Nat Biotechnol. 2011, 29, 1039). Specific” for “Specific”, “NJ). Unbound phosphate was removed by extensive washing of filters in 0.75% phosphoric acid.” for “NJ).”
as §4

c-FMS (CSF1R) = biological target: T3, c-FMS (CSF1R) (Homo sapiens, UniProt P07333); assay: Biochemical kinase assay (Reaction Biology), c-FMS (CSF1R); conditions: 10 μM ATP; read-out: Enzymatic Kinase c-FMS (CSF1R) IC50
T3 construct: purchased Reaction Biology Corporation (assay service; enzyme from the CRO's panel)
Protocol: as §3, §4

M-NFS-60 cells = assay: M-NFS-60 cell proliferation at varied CSF-1; assay type: cell-based; conditions: Mus musculus, read-out: M-NFS-60 IC50
Protocol: as §1, §2

MKN-45 cells [3] = assay: Scratch wound healing assay, MKN-45; assay type: cell-based; conditions: 36-48 hours treatment
Protocol: (§5) MKN-45 or HCC827 cells were seeded in 24-well plate. After 12-24 hours, confluent cell monolayers were gently scraped with a sterile pipette tip to form a scratch. The plates were washed with fresh medium, and the cells were incubated with medium alone or medium containing various concentration of compounds. After 36-48 hours, the plates were examined and recorded by an EVOS FL microscopy (Life Technology) to monitor rescaling of the cell monolayer.

HCC827 cells [4] = assay: Scratch wound healing assay, HCC827; assay type: cell-based, human; conditions: 36-48 hours treatment
Protocol: as §5

T2 sequence (P12931 whole entry): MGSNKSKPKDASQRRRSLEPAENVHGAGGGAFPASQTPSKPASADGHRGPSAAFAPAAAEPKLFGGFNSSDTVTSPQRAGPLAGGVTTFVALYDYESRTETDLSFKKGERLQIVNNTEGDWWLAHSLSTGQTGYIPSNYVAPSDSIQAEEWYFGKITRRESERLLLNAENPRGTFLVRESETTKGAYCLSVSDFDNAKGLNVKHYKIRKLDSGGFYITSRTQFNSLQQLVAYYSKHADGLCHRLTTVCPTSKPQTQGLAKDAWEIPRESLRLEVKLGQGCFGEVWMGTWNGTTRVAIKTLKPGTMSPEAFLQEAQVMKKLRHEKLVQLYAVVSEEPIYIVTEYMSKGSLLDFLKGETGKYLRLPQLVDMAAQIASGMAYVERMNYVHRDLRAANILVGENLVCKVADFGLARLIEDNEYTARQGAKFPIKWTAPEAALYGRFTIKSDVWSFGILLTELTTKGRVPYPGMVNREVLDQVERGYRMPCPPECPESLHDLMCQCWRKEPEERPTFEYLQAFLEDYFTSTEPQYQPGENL
T1 sequence (P08581 25-1390): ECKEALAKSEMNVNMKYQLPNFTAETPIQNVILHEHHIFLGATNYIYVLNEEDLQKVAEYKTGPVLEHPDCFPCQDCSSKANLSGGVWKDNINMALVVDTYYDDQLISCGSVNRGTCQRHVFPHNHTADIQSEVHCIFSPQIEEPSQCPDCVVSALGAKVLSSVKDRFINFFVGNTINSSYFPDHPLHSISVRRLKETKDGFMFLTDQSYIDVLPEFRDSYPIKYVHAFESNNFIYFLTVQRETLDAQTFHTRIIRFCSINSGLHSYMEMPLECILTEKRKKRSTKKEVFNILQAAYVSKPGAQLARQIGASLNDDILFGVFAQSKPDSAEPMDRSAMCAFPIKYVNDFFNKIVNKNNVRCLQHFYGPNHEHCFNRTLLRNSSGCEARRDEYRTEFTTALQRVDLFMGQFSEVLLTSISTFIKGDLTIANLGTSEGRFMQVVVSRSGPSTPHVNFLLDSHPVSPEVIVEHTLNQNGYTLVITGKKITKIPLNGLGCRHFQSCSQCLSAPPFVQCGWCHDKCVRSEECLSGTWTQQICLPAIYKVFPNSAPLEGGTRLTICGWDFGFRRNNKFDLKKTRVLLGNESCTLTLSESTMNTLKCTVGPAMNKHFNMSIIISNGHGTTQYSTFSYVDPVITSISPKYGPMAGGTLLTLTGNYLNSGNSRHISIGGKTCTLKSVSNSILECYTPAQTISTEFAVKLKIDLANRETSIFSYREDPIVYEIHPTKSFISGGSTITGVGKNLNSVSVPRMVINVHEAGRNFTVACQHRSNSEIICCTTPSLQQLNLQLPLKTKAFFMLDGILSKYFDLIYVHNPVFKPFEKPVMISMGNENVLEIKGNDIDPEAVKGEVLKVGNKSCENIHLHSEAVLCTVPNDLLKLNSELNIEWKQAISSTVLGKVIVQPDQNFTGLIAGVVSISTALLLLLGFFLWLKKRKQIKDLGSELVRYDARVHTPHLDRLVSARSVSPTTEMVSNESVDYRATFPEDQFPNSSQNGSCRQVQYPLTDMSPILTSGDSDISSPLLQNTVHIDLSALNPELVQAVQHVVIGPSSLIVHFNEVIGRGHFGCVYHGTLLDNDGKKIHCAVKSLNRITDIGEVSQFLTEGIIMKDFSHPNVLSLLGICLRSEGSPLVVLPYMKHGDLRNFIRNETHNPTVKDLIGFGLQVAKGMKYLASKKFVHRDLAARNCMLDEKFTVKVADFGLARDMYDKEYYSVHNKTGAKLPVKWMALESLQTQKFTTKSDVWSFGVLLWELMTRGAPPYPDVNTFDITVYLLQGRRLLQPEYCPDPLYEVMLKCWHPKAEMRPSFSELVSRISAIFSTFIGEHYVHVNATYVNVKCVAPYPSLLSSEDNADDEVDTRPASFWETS
T3 sequence (P07333 20-972): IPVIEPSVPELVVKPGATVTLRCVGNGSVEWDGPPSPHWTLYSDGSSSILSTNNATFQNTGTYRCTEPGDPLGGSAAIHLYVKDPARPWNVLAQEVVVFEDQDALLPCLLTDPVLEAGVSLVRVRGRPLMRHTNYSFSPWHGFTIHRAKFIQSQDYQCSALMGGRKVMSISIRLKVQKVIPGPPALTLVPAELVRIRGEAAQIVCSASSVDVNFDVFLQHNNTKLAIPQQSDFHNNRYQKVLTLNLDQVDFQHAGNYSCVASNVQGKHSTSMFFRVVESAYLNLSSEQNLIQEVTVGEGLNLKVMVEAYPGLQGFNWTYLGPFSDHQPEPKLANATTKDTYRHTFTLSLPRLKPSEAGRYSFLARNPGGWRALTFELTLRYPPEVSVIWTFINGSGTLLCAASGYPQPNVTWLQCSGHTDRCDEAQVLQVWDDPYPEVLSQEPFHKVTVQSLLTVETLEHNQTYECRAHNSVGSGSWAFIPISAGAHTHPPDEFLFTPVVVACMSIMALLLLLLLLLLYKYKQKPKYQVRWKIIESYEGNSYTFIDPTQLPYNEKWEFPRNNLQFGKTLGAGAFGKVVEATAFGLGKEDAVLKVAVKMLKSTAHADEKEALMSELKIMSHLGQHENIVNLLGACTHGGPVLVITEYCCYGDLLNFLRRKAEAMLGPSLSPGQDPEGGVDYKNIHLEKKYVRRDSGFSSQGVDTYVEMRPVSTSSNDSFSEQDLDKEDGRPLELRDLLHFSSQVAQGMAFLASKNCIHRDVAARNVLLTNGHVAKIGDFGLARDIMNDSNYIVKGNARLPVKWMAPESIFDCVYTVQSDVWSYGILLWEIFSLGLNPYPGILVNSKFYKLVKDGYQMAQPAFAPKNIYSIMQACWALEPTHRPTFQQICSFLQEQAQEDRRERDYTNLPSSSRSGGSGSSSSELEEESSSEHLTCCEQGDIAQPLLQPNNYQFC

| Compound | IC50 (SNU-5 cells) | IC50 (MKN-45 cells [2]) | IC50 (MET) | IC50 (SRC) | other results |
| --- | --- | --- | --- | --- | --- |
| C=CC(=O)Nc1cc(Nc2nccc(-c3cn(C)c4ccccc34)n2)c(OC)cc1N(C)CCN(C)C [AZD9291] | – | – | – | – | Emax (HCC827 cells [1]; Homo sapiens, HCC827, read-out: HCC827 cell proliferation Emax (maximum inhibition)): 47%; IC50 (HCC827 cells [1]; Homo sapiens, HCC827, read-out: HCC827 cell proliferation IC50): 5 nM |
| CCN1Cc2c(ccc(F)c2Cl)O[C@@H](C)CNC(=O)c2c(N)nn3ccc1nc23 [Compound 1, (7S)-3-amino-12-chloro-14-ethyl-11-fluoro-7-methyl-6,7,13,14-tetrahydro-1,15-ethenopyrazolo[4,3-f][1,4,8,10]benzoxatriazacyclotridecin-4(5H)-one] | 174 nM | 193 nM | 20.4 nM | – | – |
| CCN1Cc2c(C#N)cccc2O[C@@H](C)CNC(=O)c2cnn3ccc1nc23 [Compound 2, (7S)-14-ethyl-7-methyl-4-oxo-4,5,6.7,13,14-hexahydro-1,15-ethenopyrazolo[4,3-f][1,4,8,10]benzoxatriazacyclotridecine-12-carbonitrile] | 136 nM | 129 nM | 36.5 nM | 3 nM | – |
| CCN1Cc2c(C#N)cccc2OCCNC(=O)c2cnn3ccc1nc23 [Compound 3, 14-ethyl-4-oxo-4,5,6,7,13,14-hexahydro-1,15-ethenopyrazolo[4,3-f][1,4,8,10]benzoxatriazacyclotridecine-12-carbonitrile] | 674 nM | 471 nM | 110 nM | 97.1 nM | – |
| CCN1Cc2c(ccc(F)c2C#N)O[C@@H](C)CNC(=O)c2cnn3ccc1nc23 [Compound 4, (7S)-14-ethyl-11-fluoro-7-methyl-4-oxo-4,5,6,7,13,14-hexahydro-1,15-ethenopyrazolo[4,3-f][1,4,8,10]benzoxatriazacyclotridecine-12-carbonitrile] | 5.8 nM | 12 nM | 1.85 nM | 0.49 nM | IC50 (c-FMS (CSF1R)): 0.42 nM |
| CCN1Cc2c(C#N)cccc2O[C@@H](C)CNC(=O)c2c(N)nn3ccc1nc23 [Compound 6, (7S)-3-amino-14-ethyl-7-methyl-4-oxo-4,5,6,7,13,14-hexahydro-1,15-ethenopyrazolo[4,3-f][1,4,8,10]benzoxatriazacyclotridecine-12-carbonitrile] | 36.8 nM | 58.3 nM | 9.7 nM | 13.6 nM | – |
| FC(F)(F)c1ccc(CNc2ccc(Cc3c[nH]c4ncc(Cl)cc34)cn2)cn1 [Pexidartinib, reference compound] | – | – | – | – | IC50 (M-NFS-60 cells; CSF-1 0 ng/mL): < 0.1 nM; IC50 (M-NFS-60 cells; CSF-1 0.3 ng/mL): 2 nM; IC50 (M-NFS-60 cells; CSF-1 1 ng/mL): 146 nM; IC50 (M-NFS-60 cells; CSF-1 3 ng/mL): 212 nM; IC50 (M-NFS-60 cells; CSF-1 10 ng/mL): 380 nM; IC50 (M-NFS-60 cells; CSF-1 30 ng/mL): 595 nM; IC50 (M-NFS-60 cells; CSF-1 100 ng/mL): 702 nM |
| CNC(=O)c1ccc(-c2cnc3ncc(Cc4ccc5ncccc5c4)n3n2)cc1F [capmatinib] | – | – | – | – | cell migration of MKN-45 cells, wound healing (MKN-45 cells [3]): inhibited; cell migration of HCC827 cells, wound healing (HCC827 cells [4]): minimum effect; cell migration of HCC827 cells, wound healing (HCC827 cells [4]; listed as campmatinib): minimal effect; IC50 (HCC827 cells [1]; Homo sapiens, HCC827, combination partner at 1 μM where combined, AZD9291 curves partial, read-out: HCC827 cell proliferation IC50): > 10000 nM; HCC827 cell proliferation IC50 (HCC827 cells [1]; combination partner at 1 μM where combined, AZD9291 curves partial): not active |

Second part, led by results:

| IC50 (SNU-5 cells) | IC50 (MKN-45 cells [2]) | IC50 (MET) | IC50 (SRC) | Compound | other results |
| --- | --- | --- | --- | --- | --- |
| 1 nM | 17.7 nM | 2.2 nM | 0.7 nM | C[C@H]1CNC(=O)c2c(N)nn3ccc(nc23)N(CC2CC2)Cc2c(ccc(F)c2C#N)O1 [Compound 7, (7S)-3-amino-14-(cyclopropylmethyl)-11-fluoro-7-methyl-4-oxo-4,5,6,7,13,14-hexahydro-1,15-ethenopyrazolo[4,3-f][1,4,8,10]benzoxatriazacyclotridecine-12-carbonitrile] | – |
| 1 nM | 1 nM | 3.8 nM | 0.83 nM | CC(C)N1Cc2c(ccc(F)c2C#N)O[C@@H](C)CNC(=O)c2c(N)nn3ccc1nc23 [Compound 8, (7S)-3-amino-11-fluoro-7-methyl-4-oxo-14-(propan-2-yl)-4,5,6,7,13,14-hexahydro-1,15-ethenopyrazolo[4,3-f][1,4,8,10]benzoxatriazacyclotridecine-12-carbonitrile] | – |
| – | 297 nM | – | – | C[C@H]1CNC(=O)c2c(N)nn3ccc(nc23)NCc2c(ccc(F)c2C#N)O1 [Compound 9, (7S)-3-amino-11-fluoro-7-methyl-4-oxo-4,5,6,7,13,14-hexahydro-1,15-ethenopyrazolo[4,3-f][1,4,8,10]benzoxatriazacyclotridecine-12-carbonitrile] | – |
